Experimental data taken from US6300499A, “α1-adrenergic receptor antagonists” (Societe de Conseils de Recherches et d'Applications …, priority 1998, dated 2001).

Experiments:
[1] = system: portal vein of the rat; test: Test of the contraction of the portal vein of the rat (phenylephrine); design: species or system rat (male Sprague Dawley)
Method: (§1) The aorta and the portal vein are extracted from male Sprague Dawley rats (275-350 g, Charles River, France) after cervical dislocation and cleaned of the surrounding connective tissues. […] The contractile responses are measured using force displacement transducers either coupled to a Gould […] polygraph or connected to a data retrieval system ([…], France). A one hour period of equilibration or equalization is provided before the experiment. […] Seventy five minutes, after the sensitization, a concentration-effect curve for the phenylephrine is established. In order to determine the effect of the test compounds, different preparations are used in parallel. One preparation serves as a control whilst the others receive different test compounds introduced into the bath 60 minutes before the aministration of the phenylephrine. The results are expressed as averages ±S.E.M. or percentage of contraction. […] The EC50 values are calculated from the maximum contractile response by computer analysis using a linear regression over the average tension values.

[2] = system: prostatic urethrae; test: Urethra Contraction Test (inhibition of phenylephrine contraction of prostatic urethra); design: species or system rabbit (male New Zealand); details: inhibition of contraction of rabbit prostatic urethra, agonist phenylephrine, compound 30 min before
Method: The urethrae are removed from male New Zealand rabibits, and cleaned of the surrounding connective tissues. Bands of prostatic urethrae (3 mm wide, 10-15 mm long) are suspended (1 g tension) in organ baths containing 10 ml of physiological solution (pH 7.4) at 37° C. under an atmosphere of 95% O2 /5% CO2; NaCl (118 mM); KCl (4.7 mM); CaCl2 (2.5 mM); KH2 PO4 (1.2 mM); MgSO4 (1.2 mM); NaHCO3 (25 mM); glucose (11 mM). The contractile responses are measured using force displacement transducers coupled to a Gould 8000S polygraph. A one hour period of equilibration or equalization is provided before the experiment. After equalization, the preparations are sensitized by a submaximal concentration of phenylephrine. Forty five minutes after the sensitization, a concentration-effect curve for the phenylephrine is established. In order to determine the effect of the test compounds, different preparations originating from the same animal are used in parallel. One preparation serves as a control whilst the others receive a concentration of a test compound introduced into the bath 30 minutes before the phenylephrine (Auguet, M. et al. European J. Pharmacol. 217:153 (1995)).
The dissociation constants (Kb) of the test compounds are determined using the following equation: Kb =[B]/(dose ratio--1); in which [B] is the concentration of test compound and (dose ratio) is the EC50 of phenylephrine in the presence of the test compound divided by the EC50 of the control preparation. These resultats are then expressed as the negative logarithm of Kb. The values of the EC50 are calculated from the maximum contractile response to the phenylephrine by computer analysis using a linear regression over the average tension values. The maximum contractile response of each preparation which was subjected to the test compound is determined by comparing the response provoked by the application of the sensitizing concentration of phenylephrine with the response provoked in the control preparation (which has not received the test compounds).

[3] = system: aorta of the rabbit; test: Test of the contraction of the aorta of the rabbit (phenylephrine); design: species or system rabbit (male New Zealand); details: agonist phenylephrine, compound 60 min before
Method: (§2) The aorta and the portal vein are extracted from male New-Zealand rabbits (2.5-3.5 kg, Dombes Romans, France) after cervical dislocation and cleaned of the surrounding connective tissues. […] The contractile responses are measured using force displacement transducers coupled to a Gould RS3400 polygraph. A one hour period of equilibration or equalization is provided before the experiment. […] When the contraction provoked by the phenylephrine is stabilized, carbachol (10 μM) is administered with the aim of controlling the disorganisation of the endothelium in the vessels. Seventy five minutes after the sensitization, a concentration-effect curve for the phenylephrine is established. In order to determine the effect of the test compounds, different preparations are used in parallel. One preparation serves as a control whilst the others receive different concentrations of test compounds introduced into the bath 60 minutes before the phenylephrine. The results are expressed as averages ±S.E.M. or percentage of contraction. […] The EC50 values are calculated from the maximum contractile response by computer analysis using a linear regression over the average tension values.

[4] = system: portal vein of the rabbit; test: Test of the contraction of the portal vein of the rabbit (phenylephrine); design: species or system rabbit (male New Zealand)
Method: as §2

[5] = target: α1-adrenergic receptor; test: Test of the bond to the α1-adrenergic receptor (inhibition of [3H]prazosin bond to rat cerebral cortex); format: binding, rat (male Sprague Dawley); details: [3H]prazosin 0.2 nM, rat cerebral cortex membranes, 30 min, 25° C., pH 7.7
Method: The cerebral cortices of male Sprague Dawley rats are homogenized at 4° C. in Tris-HCl 50 mM pH=7.7 and centrifuged at 50,000 g for 30 minutes at 4° C. The pellets are again suspended in the same buffer and centrifuged again at 50,000 g for 30 minutes at 4° C.
The filters are rinsed three times with the same buffer at 0-4° C. and their radioactivity is tested by liquid scintillation spectrometry.
The specific bonds are obtained by subtracting the non-specific bonds (determined in the presence of 10 μM of phentolamine (Sigma Chemical Co. St. Louis Mo.)) from the total bonds. The data relative to the bonds is analyzed by computer assisted iterative non-linear regression analysis, using the Ligand program (Munson, P. J., Rodbard, D. Anal. Biochem. 107:220 (1980)).

[6] = system: aorta of the rat; test: Test of the contraction of the aorta of the rat (phenylephrine); design: species or system rat (male Sprague Dawley); details: agonist phenylephrine, compound 60 min before
Method: as §1

[7] = system: saphenous vein of the rabbit; test: Test of the contraction of the saphenous vein of the rabbit (phenylephrine); design: species or system rabbit (male New Zealand)
Method: The contractile responses are measured using force displacement transducers coupled to a Gould RS3400 polygraph. […] A one hour period of equilibration or equalization is provided before the experiment. During this equalization period, the tension of the venous rings is left to relax and the final tension is maintained at 0.5 g. After equalization, the preparations are sensitized by a submaximal concentration (3 μM) of phenylephrine. When the contraction triggered by the phenylephrine is stabilized, carbachol (10 μM) is administered in order to control the disorganisation of the endothelium in the vessels. Seventy five minutes after the sensitization, a concentration-effect curve for the phenylephrine is established. In order to determine the effect of the test compounds, different preparations are used in parallel. One preparation serves as a control whilst the others receive different test compounds introduced into the bath 60 minutes before the administration of the phenylephrine The results are expressed as averages ±S.E.M. or percentage of contraction. […] The EC50 values are calculated from the maximum contractile response by computer analysis using a linear regression over the average tension values.

`Cc1ccc(C)c(N2CCN(CCCNC(=O)[C@@](C)(O)c3ccccc3)CC2)c1` [Compound 45, S-(+)-N-[3-{4-(2,5-dimethylphenyl)-1-piperazinyl}-propyl]-α-hydroxy-α-methyl-benzeneacetamide] was tested, and the Kb ([1]; rat portal vein, agonist phenylephrine, compound 60 min before) was 1.4 nM, the “Selectivity Kb (Aorta)/Kb (Vein)” value ([1]; rat, aorta / portal vein) was 32 and the “-log Kb” value [2] was 8.3. The Kb [3] was 63 nM, the Kb ([4]; rabbit portal vein, agonist phenylephrine, compound 60 min before) was 1.6 nM and the “Selectivity Kb (Aorta)/Kb (Vein)” value ([4]; rabbit, aorta / portal vein) was 40. For the same compound, the Ki [5] was 13 nM, the Kb [6] was 45 nM and the Kb ([7]; rabbit saphenous vein, agonist phenylephrine, compound 60 min before) was 15 nM. The “Selectivity Kb (Salphenous vein)/Kb (Portal vein)” value ([7]; rabbit, saphenous vein / portal vein) was 8.4.
